Laboratory results reported in patent US11932850B2, “Cancer chemoprevention with STAT3 blockers” (Jill M. Siegfried, LLC, priority 2018, dated 2024).

Legend:
[1] = tested on: NSCLC cells (H1975 and 201T); test: Annexin V/propidium iodide apoptosis by flow cytometry; assay type: cell-based, human
Method: Statistical significance was determined as *P<0.05, n=3.
Dose-response experiments assessing the relative number of metabolically active viable cells were performed by transfecting cells with increasing concentrations of CS3D or CS3M, followed by performance of MTS assays. After 72 hours, 5 mg/ml of MTS reagent was added in the plates and incubated 37° C. for 20 minutes. The plates were then read at 490 nm in a Synergy microplate reader (BioTek, Winooski, Vermont) using Gen5 2.05 software. Data obtained following treatment with C3SD or CS3M were normalized to treatment with lipofectamine alone. […] After twenty four hours of transfection, cells were resuspended in annexin V-binding buffer, incubated with 5 μL of propidium iodide (BD Biosciences) and subjected to flow cytometric analysis, using a BD FACS Canto II Flow Cytometer.

201T cells = test: Soft agar colony forming assay, 201T; assay type: cell-based, human
Description: (§1) 1 hr after treatment with EGF.
(§2) Following the transfection protocol described above, cells transfected with either CS3D or CS3M were detached from the plate using Trypsin-EDTA (Life Technologies) and seeded at a density of 2×10^4 cells/well (in a 6-well plate) in soft agar to determine the ability of cells to grow in an anchorage-independent setting. Sea Plaque Agarose (Lonza—Rockland, Maine) was used to prepare 0.8% base agarose layer and a 0.48% upper agarose layer containing the transfected cells. 1 ml of appropriate growth media was added into each well and incubated at growth conditions of 37° C. with 5% CO2. Media was replaced every 3-4 days and colony formation was monitored. After 15-20 days, the media was aspirated, and wells were incubated with crystal violet in 10% formalin for 1 h. Using a dissecting scope, colonies were photographed in a 6-well plate (with 4 quadrants/well) using ImageJ software analysis to automatically count colonies, using 35 pixels as a cut-off.

H1975 cells = test: Soft agar colony forming assay, H1975; assay type: cell-based, human
Description: as §1, §2

[2] = tested on: c-Myc mRNA in H1975 cells; test: RT-qPCR of c-Myc mRNA after EGF, H1975; assay type: cell-based, human; conditions: single transfection, EGF 10 ng/ml 1.5 hr
[3] = tested on: Ki-67, p-STAT3, NF-κB in H1975 xenografts; test: IHC of H1975 xenografts after 5 daily iv injections; assay type: in vivo, nude mice
Method: Because tumors treated for several weeks with the STAT3 decoy were largely composed of debris (as illustrated in FIG. 11), xenografts were examined after only 5 daily tail vein injections to determine what cellular changes were induced prior to collapse of the intracellular tumor structure. […] Tumors derived from H1975 xenografs were analyzed by immunohistochemical staining for p-STAT3 after 5 daily iv injections of either STAT3 decoy or mutant decoy. […] This effect is quantified in FIG. 9B.
Images were captured at 40× magnification. A shift from 41% of cells was observed and scored as high-grade staining with CS3M treatment to 13% with high-grade staining in the presence of CS3D, with corresponding increases in moderate- and low-grade staining in the STAT3 decoy treated group (FIG. 12B). […] Bright field images were captured at 40× magnification. Frequency of high-grade staining for p-STAT3 differed between CS3D and CS3M treatment groups (23% in CS3D-treated and 51% in CS3M treated, with corresponding increase in low-grade staining in presence of the active decoy (FIG. 9B). Significant degradation of p-STAT3 protein was detected by IHC in tumors was observed after treatment with CS3D. Percent of high staining fields was reduced from 48% to 22% while percent of fields with low staining increased, P<0.001 (FIG. 9B).
Immunohistochemical analysis: Tumors were excised for immunohistochemical (IHC) staining; 5-μm (micron) sections were cut from formalin-fixed paraffin-embedded tissue blocks, deparaffinized and rehydrated using successive washes of xylene followed by ethanol. Antigen retrieval was performed in a microwave oven (for 20 minutes) in an unmasking solution containing sodium citrate buffer followed by peroxidase blocking in 3% hydrogen peroxide. The sections were incubated in ABC blocking buffer (Vector laboratories Inc, Burlingame, California) for 1 hour at room temperature. Sections were then stained with H&E (hematoxylin and eosin) or subjected to sequential incubations with different primary antibodies and peroxidase-conjugated goat anti-rabbit secondary antibodies. The following primary antibodies were used (at the indicated dilutions): cleaved caspase-3 (#9664, Cell Signaling, 1:300), p-STAT3 (#9145, Cell Signaling, 1:400), Ki67 (#ab15580, Abcam, 1:1000). Sections were developed with DAB and counterstained with hematoxylin. Bright field microscopy was performed using Leica DM 4000 B LED microscope and images were captured at 20× and 40× magnification using LASv4.7 software. IHC analysis was done as a blinded study with 100 images from each treatment group graded as low, moderate, or high. Staining was graded as low (<30% positive cells per field, scored as 1), moderate (30-60% positive cells per field, scored as 2) or high (>60% positive cells per field, scored as 3).

NNK-induced lung tumors = test: NNK lung cancer chemoprevention pilot experiment; assay type: in vivo; conditions: 5 mg/kg IV 5 days a wk for 18 wks
Method: In a pilot experiment, 6 FVB/N mice were given 24 mg NNK (3 mg by ip injection, twice a wk×4 wks), followed by 6 wks rest, then IV treatment of 3 mice with either 5 mg/kg CS3D or CS3M 5 days a wk for 18 wks. […] With CS3M, lungs were filled with multiple invasive adenocarcinomas, while in mice receiving CS3D, tumor burden was reduced over 80%. H&E (hematoxylin and eosin) sections were taken of murine lungs exposed to NNK followed by treatment with CS3M or CS3D for 18 wks. Invasive carcinomas were prominent with CS3M and lacking with CS3D.

[4] = tested on: p-STAT3, p-NFkB, VEGF, CD31, IL-6, COX2 in lungs
[5] = 8 weeks post-treatment, vs CS3M

Which “increase in number of cells undergoing apoptosis” value ([1]; 100 nM, 24 h, compared to CS3M) does the source give for “CS3D (DNA GATTTACGGGAAATGCSCATTTCCC; cyclic decoy with two hexaethylene glycol linkers, further chemistry not given here)” here?
The value was 2 fold.

What about the “increase in the percent of apoptotic cells” value ([1]; 201T and H1975, relative to CS3M) of the same substance?
Its value is 2 fold.

And the “increase in number of apoptotic cells” value ([1]; one transfection, all 4 cell lines)?
The value was 2 fold.

What about the “disruption of anchorage-independent growth” value (201T cells; 300 nM single transfection, at 20 days, 201T, compared to CS3M) of the same substance?
Its value is 50%.

What about the “reduction of colony formation in soft agar” value (201T cells; one transfection, 201T (FIG. 4A)) of the same substance?
The value was 55%.

What about the “disruption of anchorage-independent growth” value (H1975 cells; 300 nM single transfection, at 15 days, H1975, compared to CS3M) of the same substance?
Its value is 70%.

And the “reduction of colony formation in soft agar” value (H1975 cells; one transfection, H1975 (FIG. 4A))?
The value was 65%.

What about the “inhibition in mRNA level of c-Myc” value [2] of the same substance?
The value was 25-30%.

What about the Ki-67 high-grade staining ([3]; H1975 xenografts, 5 daily injections) of the same substance?
Its Ki-67 high-grade staining is 13%.

And the “frequency of high-grade staining for p-STAT3” value ([3]; H1975 xenografts, 5 daily iv injections)?
Its value is 23%.

And the “percent of high staining fields for p-STAT3” value ([3]; H1975 xenografts, second statement in b134 (FIG. 9B))?
Its value is 22%.

What about the “induction of apoptosis at early time point” value ([3]; after 5 daily injections (not shown)) of the same substance?
The value was “no induction of apoptosis”.

And the NF-κB nuclear protein ([3]; after five days of treatment)?
Its NF-κB nuclear protein is “No change”.

And the toxic effects (NNK-induced lung tumors)?
The toxic effects was “no discernable toxic effects”.

And the “reduction of tumor burden” value (NNK-induced lung tumors; 24 mg NNK, 6 wks rest, vs CS3M)?
Its value is “over 80%”.

What about the “IL-6 levels in the airways” value ([4]; 8 weeks after completion of therapy, vs CS3M) of the same substance?
Its value is “upregulated”.

And the COX-2 expression ([4]; 8 weeks after end of treatment, vs CS3M)?
Its COX-2 expression is “increase”.

What about the “VEGF staining in the airways” value [4, 5] of the same substance?
The value was “decrease”.

What about the “activated phospho-STAT3 protein” value [4, 5] of the same substance?
The value was “long-term reduction”.

And the phospho-NF-kB activation [4, 5]?
The phospho-NF-kB activation was “decrease”.

And the “endothelial marker CD31 expression” value ([4]; premalignant stage, data not shown)?
The value was “suppresses”.
